The target in the assay is T1, fl-KcsA (full-length KcsA) (Streptomyces lividans, UniProt P0A334).
T1 sequence (P0A334 1-160): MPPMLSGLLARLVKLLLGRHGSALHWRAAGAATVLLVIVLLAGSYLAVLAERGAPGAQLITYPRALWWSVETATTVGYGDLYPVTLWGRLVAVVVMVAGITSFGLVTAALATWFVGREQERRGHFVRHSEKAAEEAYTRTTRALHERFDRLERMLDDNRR
Briefly: SPR, KcsA immobilised on SAM chip. The note with it: specific blocker; type of constant not given. The format is binding.

Structures are written as SMILES.

With `CCCC[N+](CCCC)(CCCC)CCCC` [TBA], the binding affinity entry is given as “The binding affinity of TBA to KcsA deduced from the present SPR study”.

For the origin of these results see paper PMC10709135 (iScience, 2023).
